ChEMBL document CHEMBL3507680, “University of Dundee, Gates Library screen for HepG2 cell viability”

Test: Human HepG2 cell viability assay in 384 well format
Type: toxicity, cell-based
Parameters: dose 125 nL, time 70.5 hour; cytotoxicity at 70.5 h: concentration not given beside the values
Settings: HepG2 cells, read-out: Inhibition

Row | SMILES | cytotoxicity at 70.5 h [%]
1 | CNS(=O)(=O)c1ccc(C(=O)NCCc2ccccn2)cc1 | -10.7
2 | NCCc1c(-c2ccc(F)cc2)[nH][nH]c1=O | -3.38
3 | COCCO[C@H]1COCCN(C2CCN(C)CC2)C1 | 12.5
4 | Cc1ncsc1CCN(C)C(=O)CN1CCOc2ccccc2C1 | 0.856
5 | O=C1CCC2(CCN(c3ncc(F)cn3)CC2)N1CCN1CCCC1 | 25.9
6 | Cn1cc(Br)cc1C(=O)NCC(C)(O)c1ccsc1 (centres undefined) | -9.72
7 | COc1ccc(-c2n[nH]cc2C2SCC(=O)Nc3[nH]ncc32)cc1 (centres undefined) | -9.36
8 | Cc1nn(C)c(Cl)c1C1CCCN1Cc1cn2ccsc2n1 (centres undefined) | -1.16
9 | Cc1cc(C)cc(NC(=O)CN2CCCC(n3cncn3)C2)c1 (centres undefined) | -3.52
10 | CN(C)CCN1CCCC12CCN(Cc1nccn1C)CC2 | -0.128
11 | CCNC(=O)N1CCCC(c2noc(CC)n2)C1 (centres undefined) | -3.02
12 | CCc1nccn1C1CCCN(C(=O)CCCNc2ncccn2)C1 (centres undefined) | -1.35
13 | CC(=O)N1CCCC(c2ccc(Cc3ccccc3)cn2)C1 (centres undefined) | 20
14 | CN(c1cccnc1N1CCCC1)S(=O)(=O)c1cnn(C)c1 | 5.43
15 | Cc1cc(NC(=O)NCCO)nn1-c1ccc(Cl)cc1Cl | 0.498
16 | CSc1nsc(SCC(=O)c2cc3c(cc2Cl)NC(=O)C3)n1 | -29.3
17 | CN(Cc1ccc(C(N)=O)cc1)c1ccc(C(F)(F)F)cn1 | -2.07
18 | CC(C)CNC(=O)C1=NOC2(CCN(Cc3ccc(C(C)C)cc3)C2)C1 (centres undefined) | -1.12
19 | c1ccc(Cc2noc(-c3ccc(NCC4COCCO4)nc3)n2)cc1 (centres undefined) | -5.85
20 | Cc1oc(C)c(C(=O)N2CCCN(c3nccs3)CC2)c1C | -5.97
21 | CCOCc1nc2c(c(N3CC=CC3)n1)CCN(C1CCOCC1)CC2 | 0.826
22 | CC(C)Cc1cc(CNC(=O)c2cccc3c2OCC3)no1 | -9.93
23 | CC(C)n1nccc1NC(=O)NCCc1nc2ccc(F)cc2n1C | -11

Row | SMILES | cytotoxicity at 70.5 h [%]
24 | Cc1ccsc1CN1CCc2c(nc(N3CCCCC3C)[nH]c2=O)C1 (centres undefined) | -6.71
25 | N#Cc1ccc(OCC(O)CN2CCC(Cn3cccn3)CC2)cc1 (centres undefined) | -3.6
26 | CN(CCOc1ccc(C#N)cc1)CC1CCS(=O)(=O)C1 (centres undefined) | -9.8
27 | Oc1cc(-c2ccsc2)nc(C2CCN(Cc3ccncc3)CC2)n1 | -3.71
28 | CCc1nnc2n1CCN(CC(=O)Nc1sccc1C#N)C2 | -9.93
29 | CCC(=O)N1CCC(c2cncc(Oc3cccnc3)n2)CC1 | -5.07
30 | CCOc1ncccc1CNC(=O)Nc1ccccc1 | 16.2
31 | CCc1ncc(C(=O)NCCNc2ccncc2)s1 | -0.807
32 | Cc1cc(F)c2c(c1)CCCN2Cc1cc(=O)n(C)c(=O)n1C | -8.84
33 | CC(Cc1cn(CCc2nnn[nH]2)nn1)c1ccccc1 (centres undefined) | -5.17
34 | CCCN1CCC(N2CCN(c3cccc(C)n3)CC2)CC1 | 5.86
35 | CN1C(=O)CO[C@H]2CN(C(=O)c3ccc4c(c3)CCCC4)C[C@@H]21 | 8.95
36 | CCn1nccc1CN(C)c1[nH]cnc2nc(C)nc1-2 | -5.53
37 | CCC[C@@H]1CN(C(=O)c2ccccc2-c2ccccc2)C[C@H]1N(C)C | 0.165
38 | CN(C)CCNC(=O)c1cc2c(s1)CCN2S(C)(=O)=O | -9.71
39 | CSc1ccccc1CN1CCn2nc(CNC(C)=O)cc2C1 | -0.83
40 | CCOc1ncccc1CNC(=O)N1CCCC1c1ccncc1 (centres undefined) | -8.99
41 | CCCS(=O)(=O)N1CCC2(CCCN(Cc3cccc(F)c3F)C2=O)C1 (centres undefined) | -7.34
42 | Cc1ccc(S(=O)(=O)N2CCOCC2C(N)=O)c(F)c1 (centres undefined) | -8.93
43 | CN1[C@@H](c2ccccc2)[C@@H](C(=O)NCC2CCOCC2)C[C@@]1(C)C(=O)O | -11.8
44 | Cc1nnc(SC2CCN(c3sccc3C#N)C2=O)[nH]1 (centres undefined) | -9.17
45 | O=S(=O)(C1CC1)N1CCC2(CCCN(Cc3ccccn3)C2)C1 (centres undefined) | -0.34
46 | Cc1cc(C)n(CC(=O)N2CCCCC2CCN(C)C)c(=O)n1 (centres undefined) | -7.91

Row | SMILES | cytotoxicity at 70.5 h [%]
47 | CN1CCC(c2cccc(C(=O)N(C)C)n2)CC1 | -7.65
48 | NC(=O)c1cnc(NCC(=O)NCc2ccccc2)c(Cl)c1 | -4.1
49 | CCCC(NC(=O)c1occc1C)c1nnn[nH]1 (centres undefined) | -1.34
50 | O=C(c1ccc(-n2cccn2)nc1)N1CCCC(c2cnccn2)C1 (centres undefined) | -4.09
51 | O=C(c1cc(F)cc(F)c1)N1CCC(O)(C(F)(F)F)CC1 | 19.9
52 | CCCNC(=O)c1cc(-c2cnc(N3CCCC3)nc2)cn1C | 3.66
53 | c1cnnc(N2CCCC(NCc3nc(-c4ccco4)no3)C2)c1 (centres undefined) | 46.2
54 | CCOC(=O)c1cc2c(=O)[nH]c(=O)n(CCc3ccccc3)c2nc1C | -7.68
55 | CN1CCN(C(=O)c2nnc3ccc(Cl)cc3n2)CC1 | -10.9
56 | CC(C)COCC(NC(=O)CSc1nnc[nH]1)c1ccco1 (centres undefined) | -12.5
57 | Cc1ccc2nc(C(=O)N3CCC(CCn4cccn4)CC3)cn2c1 | 16
58 | Cc1ccc(CN(C)C(=O)CN2CCCC2Cn2cccn2)o1 (centres undefined) | -9.22
59 | CCCc1nc(C)c(CN2CC3(CCOC3)CCC2=O)s1 (centres undefined) | -8.32
60 | CN(C)c1cc(CNc2ccc(S(=O)(=O)C(C)(C)C)nc2)ccn1 | 8.83
61 | CCc1c(O)n(C(C)CC)c(SCC(=O)c2ccccc2)nc1=O (centres undefined) | -8.65
62 | CCC1=N[C@@]2(CC[C@@H]3CN(CC4CC4)C[C@@H]32)C(=O)N1CC1CC1 | -20.5
63 | CN(C)Cc1cc(C2CCN(C(=O)C3CC34CCC4)CC2)nn1C (centres undefined) | -0.0295
64 | Cc1ccc(C(=O)N2CCOCC2)cc1NCc1ccsc1 | -12.3
65 | Cc1nc(COc2ccc(N(C)S(C)(=O)=O)cc2)sc1C | 48
66 | Cc1nc(-c2cccc(N3CCC(N[C@@H]4CCOC4)CC3)c2)cs1 | 0.567
67 | Cc1nn(CC(=O)N2CCC(Nc3cccnn3)CC2)c(C)c1Cl | 28.5
68 | Cc1cc(CNC2CCc3nc(C(C)C)nn3C2)on1 (centres undefined) | -5.91
69 | COc1ccc(-c2nc(CN3CCCS3(=O)=O)co2)cc1 | 14.5

Row | SMILES | cytotoxicity at 70.5 h [%]
70 | FC(F)(F)Oc1cccc(CNC[C@H]2Cn3ccnc3CO2)c1 | 0.704
71 | Cc1ccc(C(=O)N2C[C@@H]3C[C@@H](c4nnc(C5CC5)o4)O[C@@H]3C2)s1 | -3.56
72 | Cc1nc(C)c(C(=O)NCCNc2cc(N3CCCC3)ncn2)s1 | 9.32
73 | CN(C)c1ccc(C2CCN(c3cnccn3)CC2)nc1 | 6.87
74 | Cc1cnc(N)nc1NCCSCc1[nH]cnc1C | -1.94
75 | CC(C)CC(=O)NC[C@H]1CC[C@H](C(c2ccccn2)N(C)C)CC1 (some centres undefined) | -3.76
76 | O=S1(=O)COCCN1Cc1ccc(Cl)c(Cl)c1 | -6.71
77 | COc1ccc(-c2cnc(NC(C)=O)[nH]2)cc1 | 10.1
78 | CC(C)(O)CCc1ccc(C(=O)N2CCN(CCS(C)(=O)=O)CC2)cc1 | 0.886
79 | O=C([C@H]1COC[C@H]2CN(Cc3ccco3)C[C@H]21)N1CCCO1 | 5.11
80 | CCOCCC(=O)N1Cc2cnc(-c3ccccc3)nc2C1 | -12.5
81 | O=C1CO[C@@H]2CN(CC3CC3)C[C@H]2N1Cc1cccc(F)c1 | 14.4
82 | O=C(c1ccc(-n2cccn2)nc1)N1CCCC(n2cccn2)C1 (centres undefined) | -7.62
83 | CN1C[C@@H](n2cnc(-c3ccccc3)c2-c2ncc[nH]2)C[C@H]1C(=O)O | 5.36
84 | COCCn1cc(NC(=O)NC(C)Cc2c(F)cccc2F)cn1 (centres undefined) | 12.3
85 | CC(C)Oc1ccc(CN2CCCC(N3CCCC3)C2)cc1CO (centres undefined) | 2.77
86 | CC(C)c1ncc(CNC2(c3ccc(Cl)cc3)CC2)cn1 | -1.4
87 | CCN(C(=O)CCc1ccccc1)C1CC(=O)NC1=O (centres undefined) | 0.716
88 | COCC1CN(C(=O)c2cccc(C)n2)Cc2ncnn2C1 (centres undefined) | 17.7
89 | Cc1csc(CNC(=O)N(C)Cc2nnc3n2CCC3)n1 | -12.1
90 | CCCc1n[nH]c(C2CN(C(=O)c3ccc[nH]3)CCO2)n1 (centres undefined) | -3.89
91 | COc1cc(COCC2CCN(Cc3cccnc3)CC2)cc(OC)c1 | -1.2
92 | CN(C)c1cnnc(N2CCN(C(=O)Cc3ccccc3)CC2)c1 | -8

Row | SMILES | cytotoxicity at 70.5 h [%]
93 | O=C(C1CC1)N1C[C@@H](F)[C@@H](OCc2nc3ccccc3o2)C1 | 0.185
94 | Cc1nc(-c2ccsc2)sc1C(=O)N1CCn2c(C)nnc2C1 | -0.696
95 | Cc1nc(COCc2nc3c(o2)CN(C(=O)c2ccoc2)C3)cs1 | -7.05
96 | COc1ccnc(C(=O)N2CCCC(c3noc(C)n3)C2)c1 (centres undefined) | -12.8
97 | Cc1cnc(NC(=O)NCCOc2ncccc2Cl)s1 | -4.99
98 | COc1ccc(S(=O)(=O)NC(=O)COC2CCCCC2)cc1 | -7.04
99 | Cc1cc(C)nc(N2CCc3ccc(OC(F)F)cc3C2)n1 | -2.64
100 | CCCS(=O)(=O)N1CCC(NC(=O)c2cc3ccccc3s2)CC1 | -6.56
101 | c1cnc(N2CCO[C@H]3CN(Cc4csnn4)C[C@H]32)nc1 | -11.7
102 | COCCN1CCOCC12CCN(C(=O)c1ccoc1)CC2 | -4.83
103 | COc1nccnc1-c1cc(NC2CCNCC2)nc2[nH]ccc12 | -0.195
104 | COCC1CN(CCOc2ccc(Cl)cc2)Cc2c1cnn2C (centres undefined) | -6.25
105 | CS(=O)(=O)NC[C@H]1OC[C@@H]2CCN(C(=O)c3cccnc3)C[C@@H]21 | -0.643
106 | Cn1nc2c(cc1=O)CN(Cc1nc(-c3ccoc3)no1)CC2 | -2.1
107 | CN(C)C(CNC(=O)c1nc(N2CCOCC2)ncc1Cl)c1cccs1 (centres undefined) | -8.97
108 | Cc1cc(N(C)C)nc(C2COCCN2Cc2csc(C)n2)n1 (centres undefined) | 10.4
109 | CCC[C@H]1CN(S(=O)(=O)N(C)Cc2ccccc2)C[C@@H]1N | 1.2
110 | CCc1nc(CN(CCc2ccccc2)C2CCN(C)CC2)no1 | -9.81
111 | CCN1CCOC(CNCc2ccccc2OCc2ccncc2)C1 (centres undefined) | 14.2
112 | Cn1nnnc1SCc1cc2c(cc1Cl)OCO2 | -16
113 | CN(CC1CN(CCn2cc(C#N)cn2)CCO1)c1cccnn1 (centres undefined) | -6.68
114 | CN1CCC(NC(=O)c2cc(Cl)cc(Br)c2O)C1=O (centres undefined) | -5.52
